# Experiments:
# [1] = test system: Mia-Paca2 (human pancreas cancer cells); assay: Antiproliferative activity, WST1 colorimetric test, Mia-PaCa2; format: cell-based; conditions: MIA PaCa-2, Mia-Paca2, treated 96 hours, up to 10 μM, read-out: IC50 on the cell proliferation of the Mia-Paca2 lines
# Procedure: (§1) iii) Characterization of the Antiproliferative Activity:
# (§2) By way of example, the effect of a treatment on two human cell lines Mia-Paca2 and DU145 by the compounds of the examples described previously will be studied. The cell lines DU145 (human prostate cancer cells) and Mia-PaCa2 (human pancreas cancer cells) were acquired from the American Tissue Culture Collection (Rockville, Md., USA). The cells placed in 80 μl of Dulbecco's Modified Eagle's medium (Gibco-Brl, Cergy-Pontoise, France) completed with 10% foetal calf serum inactivated by heating (Gibco-Brl, Cergy-Pontoise, France), 50,000 units/l of penicillin and 50 mg/l of streptomycin (Gibco-Brl, 10378-057, Cergy-Pontoise, France), and 2 mM of glutamine (Gibco-Brl, Cergy-Pontoise, France) were seeded on a 96-well plate on day 0. The cells were treated on day 1 for 96 hours with increasing concentrations of each of the compounds to be tested up to 10 μM. At the end of this period, quantification of cell proliferation is evaluated by a colorimetric test based on the cleavage of the tetrazolium salt WST1 by the mitochondrial dehydrogenases in viable cells leading to the formation of formazan (Boehringer Mannheim, Meylan, France). These tests are carried out in duplicate with 8 determinations per concentration tested. For each compound to be tested, the values included in the linear part of the sigmoid were retained for a linear regression analysis and used to estimate the inhibitory concentration IC50. The products are solubilized in dimethylsulphoxide (DMSO) at 10^−2 M and finally used in culture with 0.1% DMSO.
# [2] = test system: DU145 (human prostate cancer cells); assay: Antiproliferative activity, WST1 colorimetric test, DU145; format: cell-based; conditions: DU-145, treated 96 hours, up to 10 μM, read-out: IC50 on the cell proliferation of the DU-145 lines
# Procedure: as §1, §2
SMILES,melting point,IC50 [1],IC50 [2]
"CN(C)CCNC1=CC(=O)c2oc(-c3ccc(F)cc3)nc2C1=O [Example 18, 5-{[2-(dimethylamino)ethyl]amino}-2-(4-fluorophenyl)-1,3-benzoxazole-4,7-dione]",181 to 182 °C,≤ 10 µM,≤ 10 µM
"CN(C)CCNC1=CC(=O)c2nc(-c3ccc4ccccc4c3)sc2C1=O [Example 13, 6-{[2-(dimethylamino)ethyl]amino}-2-(2-naphthyl)-1,3-benzothiazole-4,7-dione]",167 to 168 °C,≤ 10 µM,≤ 10 µM
"CCCCc1ccc(-c2nc3c(s2)C(=O)C(NCCN(C)C)=CC3=O)cc1 [Example 11, 2-(4-butylphenyl)-6-{[2-(dimethylamino)ethyl]amino}-1,3-benzothiazole-4,7-dione]",126 to 127 °C,≤ 10 µM,≤ 10 µM
"CN(C)CCNC1=CC(=O)c2nc(-c3cccc(Cl)c3)oc2C1=O [Example 30, 2-(3-chlorophenyl)-6-{[2-(dimethylamino)ethyl]amino}-1,3-benzoxazole4,7-dione]",174 to 175 °C,≤ 10 µM,≤ 10 µM
"CN(C)CCNC1=CC(=O)c2nc(Cc3cccc4ccccc34)oc2C1=O [Example 44, 6-{[2-(dimethylamino)ethyl]amino}-2-(1-naphthylmethyl)-1,3-benzoxazole-4,7-dione]",153 to 154 °C,≤ 10 µM,≤ 10 µM
"CCc1ccc(-c2nc3c(o2)C(=O)C=C(NCCN(C)C)C3=O)cc1 [Example 22, 5-{[2-(dimethylamino)ethyl]amino}-2-(4-ethylphenyl)-1,3-benzoxazole4,7-dione]",169 to 170 °C,≤ 10 µM,≤ 10 µM
"CN(C)CCNC1=CC(=O)c2nc(-c3ccccc3Br)oc2C1=O [Example 28, 2-(2-bromophenyl)-6-{[2-(dimethylamino)ethyl]amino}-1,3-benzoxazole4,7-dione]",147 to 148 °C,≤ 10 µM,≤ 10 µM
"O=C1C(NCCN2CCCC2)=CC(=O)c2oc(-c3cccc(Br)c3)nc21 [Example 24, 2-(3-bromophenyl)-5-[(2-pyrrolidin-1-ylethyl)amino]1,3-benzoxazole4,7-dione]",169 to 170 °C,≤ 10 µM,≤ 10 µM
"CN(C)CCNC1=CC(=O)c2oc(-c3ccccc3Br)nc2C1=O [Example 16, 2-(2-bromophenyl)-5-{[2-(dimethylamino)ethyl]amino}-1,3-benzoxazole4,7-dione]",153 to 154 °C,≤ 10 µM,≤ 10 µM

# Results, then the compound that gave them:
melting point,IC50 [1],IC50 [2],SMILES
163 to 164 °C,≤ 10 µM,≤ 10 µM,"O=C1C=C(NCCN2CCCC2)C(=O)c2oc(-c3cc(F)cc(F)c3)nc21 [Example 51, 2-(3,5-difluorophenyl)-6-[(2-pyrrolidin-1-ylethyl)amino]-1,3-benzoxazole-4,7-dione]"
173 to 174 °C,≤ 10 µM,≤ 10 µM,"O=C1C=C(NCCN2CCCC2)C(=O)c2oc(Cc3c(F)cccc3Cl)nc21 [Example 58, 2-(2-chloro-6-fluorobenzyl)-6-[(2-pyrrolidin-1-ylethyl)amino]-1,3-benzoxazole-4,7-dione]"
198.5 to 199.5 °C,≤ 10 µM,≤ 10 µM,"COc1ccc(-c2nc3c(o2)C(=O)C(NCCN2CCCC2)=CC3=O)cc1OC [Example 57, 2-(3,4-dimethoxyphenyl)-6-[(2-pyrrolidin-1-ylethyl)amino]-1,3-benzoxazole-4,7-dione]"
161 to 162 °C,≤ 10 µM,≤ 10 µM,"O=C1C=C(NCCN2CCCC2)C(=O)c2oc(-c3cccc(Cl)c3)nc21 [Example 47, 2-(3-chlorophenyl)-6-[(2-pyrrolidin-1-ylethyl)amino]-1,3-benzoxazole4,7-dione]"

# — patent US7335674B2, “Benzothiazole-4,7-diones and benzoxazole-4,7-diones with substituents in position 5 or 6 and method for production thereof” (Societe de Conseils de Recherches et d'Applications …, priority 2003, dated 2008)
